The source made the active and inactive calls. The calls are words filed in the database; no cut-off is given here.
What was measured:
[1] = target: T1, Retinoic acid receptor gamma (Homo sapiens, UniProt P13631); assay: Binding affinity against Retinoic acid receptor gamma was determined in vitro by using [3H]ATRA as radioligand
T1 sequence (P13631 whole entry): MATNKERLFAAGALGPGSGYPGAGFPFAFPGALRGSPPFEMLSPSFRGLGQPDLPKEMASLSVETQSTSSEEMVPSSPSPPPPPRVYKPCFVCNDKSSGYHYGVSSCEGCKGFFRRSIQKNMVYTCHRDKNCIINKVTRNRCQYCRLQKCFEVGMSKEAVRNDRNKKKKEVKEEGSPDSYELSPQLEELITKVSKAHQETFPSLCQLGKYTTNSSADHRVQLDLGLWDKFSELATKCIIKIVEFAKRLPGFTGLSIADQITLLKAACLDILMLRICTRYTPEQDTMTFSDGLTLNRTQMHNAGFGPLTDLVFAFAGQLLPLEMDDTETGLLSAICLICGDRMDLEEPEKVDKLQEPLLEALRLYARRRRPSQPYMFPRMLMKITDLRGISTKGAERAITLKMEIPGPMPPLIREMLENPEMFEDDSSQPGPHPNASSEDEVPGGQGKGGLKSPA

[2] = target: T2, Retinoic acid receptor RXR-alpha (Homo sapiens, UniProt P19793); assay: Inhibitory activity against Retinoic acid receptor RXR-alpha antagonist was determined in vitro; type: functional
T2 sequence (P19793 whole entry): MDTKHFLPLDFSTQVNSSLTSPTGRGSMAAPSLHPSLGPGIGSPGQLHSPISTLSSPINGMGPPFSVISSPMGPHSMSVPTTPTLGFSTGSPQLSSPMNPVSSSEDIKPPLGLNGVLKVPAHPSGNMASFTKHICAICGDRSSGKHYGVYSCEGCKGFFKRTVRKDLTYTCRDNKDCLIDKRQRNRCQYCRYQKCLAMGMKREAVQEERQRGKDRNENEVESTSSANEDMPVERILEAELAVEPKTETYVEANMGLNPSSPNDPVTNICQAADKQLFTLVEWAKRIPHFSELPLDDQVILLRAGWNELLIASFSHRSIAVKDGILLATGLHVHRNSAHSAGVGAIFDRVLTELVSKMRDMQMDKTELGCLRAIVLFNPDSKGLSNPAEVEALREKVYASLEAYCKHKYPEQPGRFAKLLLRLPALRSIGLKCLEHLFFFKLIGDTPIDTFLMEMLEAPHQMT

[3] = RXR:RAR synergy expressed as fold induction
RXR alpha/PPAR gamma = RXR alpha/PPAR gamma (Homo sapiens, UniProt P19793)
Description: Transcriptional activity against RXR:PPAR-gamma synergy was determined in vitro

[4] = target: T2, Retinoic acid receptor RXR-alpha
Description: Binding affinity against Retinoic acid receptor RXR-alpha was determined in vitro by using [3H]9-cis-RA as radioligand

[5] = Transcriptional activation in CV-1 cells expressing RXR and LXR at 1 uM; type: functional
Rattus norvegicus [6] = organism: Rattus norvegicus; assay: Effect on triglyceride level in male Dawley rats at 24 hr r; type: functional
Mus musculus [7] = assay: In vivo hypoglycemic activity, as reduced plasma glucose in db/db mouse type II diabetes model; type: functional
Mus musculus [8] = assay: In vivo hypoglycemic activity compared to BRL-46953 as reduced plasma glucose in db/db mouse type II diabetes model; type: functional
Rattus norvegicus [9] = organism: Rattus norvegicus; assay: Effect on T4 levels in male Dawley rats at 24 hr r; type: functional
[10] = target: T2, Retinoic acid receptor RXR-alpha; remark: listed apart in the source
Description: Inhibition of Retinoic acid receptor RXR-alpha agonist activity in vitro

[11] = target: T3, Retinoic acid receptor RXR-alpha (Homo sapiens) (UniProt P19793)
T3 sequence (whole entry): T2 sequence (P19793 whole entry)

Chain of RXR alpha/PPAR gamma (P37231 whole entry, one chain of several): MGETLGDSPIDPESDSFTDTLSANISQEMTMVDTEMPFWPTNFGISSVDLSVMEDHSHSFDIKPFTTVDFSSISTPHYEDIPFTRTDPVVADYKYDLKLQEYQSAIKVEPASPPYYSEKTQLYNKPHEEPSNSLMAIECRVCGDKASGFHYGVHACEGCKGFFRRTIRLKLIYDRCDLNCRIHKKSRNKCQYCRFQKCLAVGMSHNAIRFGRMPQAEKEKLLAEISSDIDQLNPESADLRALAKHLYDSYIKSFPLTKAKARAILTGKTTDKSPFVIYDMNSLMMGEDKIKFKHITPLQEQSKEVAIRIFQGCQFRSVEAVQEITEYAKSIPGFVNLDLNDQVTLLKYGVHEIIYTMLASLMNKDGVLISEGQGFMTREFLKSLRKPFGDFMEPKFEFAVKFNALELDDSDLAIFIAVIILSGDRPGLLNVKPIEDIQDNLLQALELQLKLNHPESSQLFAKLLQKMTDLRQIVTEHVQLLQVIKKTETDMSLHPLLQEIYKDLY

| Compound | Ki [1] [µM] | IC50 [2] [µM] | Synergy [3] [fold] | EC50 (RXR alpha/PPAR gamma) [µM] | Ki [4] [µM] | EC50 [10] [µM] | Activation [5] [fold] | Activity (Rattus norvegicus [6]) [mg/dL] | Activity (Mus musculus [7]) [mg/dL] | Normalization (Mus musculus [8]) [%] | Activity (Rattus norvegicus [9]) [ng/mL] | NB [11] |
| --- | --- | --- | --- | --- | --- | --- | --- | --- | --- | --- | --- | --- |
| CCCCOc1c(\C(C)=C/C=C/C(C)=C/C(=O)O)cc(C(C)C)cc1C(C)C | 10 | 0.004 | 1 | 0.012 | 0.004 | – | 0.6 | 63 | 502 | 33 | 72 | – |
| CCOc1c(\C(C)=C/C=C/C(C)=C/C(=O)O)cc(C(C)(C)C)cc1C(C)(C)C | 10 | 0.008 | 3 | 0.002 | 0.011 | 0.018 | 2.04 | 92 | 412 | 100 | 25 | – |
| C/C(=C/C=C/C(C)=C/C(=O)O)c1cc(C(C)(C)C)cc(C(C)(C)C)c1OCC(F)F | 10 | – | 2 | – | – | – | 1.2 | 75 | 409 | 101 | 70 | – |
| C/C(=C/C=C/C(C)=C/C(=O)O)c1cc(C(C)C)cc(C(C)C)c1OCCF | 10 | 0.004 | 4 | 0.004 | 0.001 | 0.007 | – | – | – | – | – | – |
| Cc1cc2c(cc1C1(c3ccc(C(=O)O)cn3)CC1)C(C)(C)CCC2(C)C | – | – | 7 | – | – | – | 6.3 | 152 | 400 | 101 | 37 | – |
| C/C(=C/C=C/C(C)=C/C(=O)O)c1cc(C(C)C)cc(C(C)C)c1OCC(F)F | 10 | 0.001 | 3 | 0.01 | 0.002 | – | – | – | – | – | – | – |
| CN(CCOc1ccc(CC2SC(=O)NC2=O)cc1)c1ccccn1.O=C(O)/C=C\C(=O)O (stereo not drawn) [ROSIGLITAZONE MALEATE] | – | – | – | – | – | – | – | 78 | 412 | 100 | 70 | inactive |
| COc1c(\C(C)=C/C=C/C(C)=C/C(=O)O)cc(C(C)C)cc1C(C)C | 10 | – | 10 | 0.008 | 0.001 | 0.002 | – | – | – | – | – | – |
| CCOc1c(\C(C)=C/C=C/C(C)=C/C(=O)O)cc(C(C)C)cc1C(C)C | 10 | – | 5 | 0.001 | 0.002 | 0.002 | – | – | – | – | – | – |
| C/C(=C/C=C/C(C)=C/C(=O)O)c1cc(C(C)C)cc(C(C)C)c1OCC(F)(F)F | 1.86 | 0.006 | 2 | 0.003 | 0.003 | – | – | – | – | – | – | – |

Now from value to compound, other results behind:

| Ki [1] [µM] | IC50 [2] [µM] | Synergy [3] [fold] | EC50 (RXR alpha/PPAR gamma) [µM] | Ki [4] [µM] | EC50 [10] [µM] | Compound | Activation [5] [fold] | Activity (Rattus norvegicus [6]) [mg/dL] | Activity (Mus musculus [7]) [mg/dL] | Normalization (Mus musculus [8]) [%] | Activity (Rattus norvegicus [9]) [ng/mL] | NB [11] |
| --- | --- | --- | --- | --- | --- | --- | --- | --- | --- | --- | --- | --- |
| 10 | 0.016 | 1 | 0.011 | – | – | CCC(C)(C)c1cc(\C(C)=C/C=C/C(C)=C/C(=O)O)c(OCC(F)F)c(C(C)(C)CC)c1 | – | – | – | – | – | – |
| 10 | – | 3 | 0.007 | 0.001 | 0.036 | COc1c(\C(C)=C/C=C/C(C)=C/C(=O)O)cc(C(C)(C)C)cc1C(C)(C)C | – | – | – | – | – | – |
| 4.03 | 0.008 | 1 | 0.002 | – | – | C/C(=C/C=C/C(C)=C/C(=O)O)c1cc(C(C)(C)C)cc(C(C)(C)C)c1OCC(F)(F)F | – | – | – | – | – | – |
| 2.5 | 0.017 | 2 | 0.009 | 0.002 | – | CCOc1c(\C(C)=C/C=C/C(C)=C/C(=O)O)cc(C(C)(C)CC)cc1C(C)(C)CC | – | – | – | – | – | – |
| 10 | 0.004 | 2 | 0.005 | 0.003 | – | CCCOc1c(\C(C)=C/C=C/C(C)=C/C(=O)O)cc(C(C)C)cc1C(C)C | – | – | – | – | – | – |
| 10 | – | 2 | 0.006 | 0.002 | 0.506 | CCC(C)(C)c1cc(\C(C)=C/C=C/C(C)=C/C(=O)O)c(OC)c(C(C)(C)CC)c1 | – | – | – | – | – | – |
| 10 | 0.043 | 1 | 0.154 | 0.014 | – | CCCOc1c(\C(C)=C/C=C/C(C)=C/C(=O)O)cc(C(C)(C)C)cc1C(C)(C)C | – | – | – | – | – | – |
| 10 | 0.013 | 1 | 0.019 | 0.023 | – | CCCOc1c(\C(C)=C/C=C/C(C)=C/C(=O)O)cc(C(C)(C)CC)cc1C(C)(C)CC | – | – | – | – | – | – |
